The results in this text go back to patent publication US8741897B2, “Glucocorticoid mimetics, methods of making them, pharmaceutical compositions and uses thereof” (Boehringer Ingelheim Pharmaceuticals Inc., priority 2003, dated 2014).

The structures appear in SMILES notation.

For assay [1], the system named is Human osteosarcoma MG-63 cells. In words: Inhibition of osteocalcin production from osteoblast cell line MG-63. It is filed as cell-based. The conditions noted are these: Vitamin D 10 nM, 48 hours. The protocol:
7. Inhibition of Osteocalcin Production from Osteoblast Cell Line MG-63
The next day, wells are replaced with fresh media. Cells are treated with Vitamin D (Sigma, Cat. No. D1530) to a final concentration of 10 nM, and with the test compounds in concentrations of 10^−6 M to 10^−9 M, in a total volume of 200 μL per well. Samples are done in duplicates. […] Positive control wells receive Vitamin D only, without compounds, and represent maximum (100%) amount of osteocalcin production. Plates are incubated at 37° C. incubator for 48 hours and supernatants are harvested at the end of incubation. Amounts of osteocalcin in the supernatants are determined by the Glype osteocalcin ELISA kit (Zymed, Cat. No. 99-0054) according to manufacture's protocol. Inhibition of osteocalcin by test compounds is expressed in percentage relative to positive controls. IC50 values of the test compounds are derived by non-lineal curve fitting.

Assay [2] relates to glucocorticoid receptor function. In words: one or more of the above assays (GR binding and glucocorticoid receptor cell assays: aromatase, IL-6, TAT, MMTV-Luc, IL-8, ICAM-Luc). Type of assay: cell-based. The conditions noted are these: assay not specified per compound.
Assay [3] deals with T1, human glucocorticoid receptor (GR) complex (Homo sapiens, UniProt P04150).
T1 construct: made in house; host or cells: insect expression system (baculovirus lysate)
T1 sequence (P04150 1-777): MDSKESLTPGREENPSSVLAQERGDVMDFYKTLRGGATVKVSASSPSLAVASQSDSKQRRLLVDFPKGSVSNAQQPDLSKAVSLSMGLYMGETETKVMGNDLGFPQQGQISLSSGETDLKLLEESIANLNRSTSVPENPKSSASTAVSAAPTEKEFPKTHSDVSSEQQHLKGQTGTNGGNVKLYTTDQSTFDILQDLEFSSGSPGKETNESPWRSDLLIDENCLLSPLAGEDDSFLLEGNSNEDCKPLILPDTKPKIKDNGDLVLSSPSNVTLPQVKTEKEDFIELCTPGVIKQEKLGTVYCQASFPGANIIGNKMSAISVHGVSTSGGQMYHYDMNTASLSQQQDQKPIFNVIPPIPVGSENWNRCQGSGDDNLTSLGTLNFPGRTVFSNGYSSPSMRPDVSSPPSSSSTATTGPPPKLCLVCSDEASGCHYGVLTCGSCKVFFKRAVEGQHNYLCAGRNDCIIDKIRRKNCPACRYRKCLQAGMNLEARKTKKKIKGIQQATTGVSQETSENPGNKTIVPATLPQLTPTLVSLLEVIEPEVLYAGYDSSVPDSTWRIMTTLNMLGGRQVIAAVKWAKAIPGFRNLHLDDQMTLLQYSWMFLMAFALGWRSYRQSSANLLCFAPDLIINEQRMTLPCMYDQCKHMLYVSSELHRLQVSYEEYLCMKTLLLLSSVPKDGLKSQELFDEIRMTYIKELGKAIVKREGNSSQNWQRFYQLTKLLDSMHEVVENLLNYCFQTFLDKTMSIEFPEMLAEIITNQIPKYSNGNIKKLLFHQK
As to the kind of experiment: Glucocorticoid receptor competitive binding assay (fluorescence polarization, TAMRA-labeled dexamethasone probe). The following applies: compounds of Formula (IA). The procedure, abridged: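 Fluorescence-polarization competition against 15 nM TAMRA-dexamethasone (stock added to the mix) for human GR complex from baculovirus lysate diluted 1:170. Buffer: 10 mM TES, 50 mM KCl, 20 mM Na2MoO4, 1.5 mM EDTA, 0.04% CHAPS, 10% glycerol, 1 mM DTT, pH 7.4. IC50 from 4-parameter logistic fit.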

Take `Cc1cc(C#N)cc2[nH]c(CC(O)(CC(C)(C)c3cc(S(C)(=O)=O)cc4c3OCC4)C(F)(F)F)cc12` (centres unmarked) [2-[2-Hydroxy-4-(5-methanesulfonyl-2,3-dihydrobenzofuran-7-yl)-4-methyl-2-trifluoromethylpentyl]-4-methyl-1H-indole-6-carbonitrile]: the “inhibit the vitamin D stimulated production of osteocalcin” value in assay [1] is “inhibit”. Moreover, the “activity as agonists of the glucocorticoid receptor function in one or more of the above assays” value (shortened to “activity as agonists”) in assay [2] is given as “potent agonists”. Moreover, the “activity in the GR binding assay” value in assay [3] is reported as “potent activity”.
`COc1ccc(-c2cncnc2)cc1C(C)(C)CC(O)(Cc1cc2cc(N3CCCCC3)ncc2[nH]1)C(F)(F)F` (centres unmarked) [1,1,1-Trifluoro-4-(2-methoxy-5-pyrimidin-5-ylphenyl)-4-methyl-2-(5-piperidin-1-yl-1H-pyrrolo[2,3-c]pyridin-2-ylmethyl)pentan-2-ol]: in assay [1], the “inhibit the vitamin D stimulated production of osteocalcin” value is given as “inhibit”. Also, in assay [2], the “activity as agonists” value was “potent agonists”.
The like results for `CC(C)(CC(O)(Cc1cc2cc(N3CCOCC3)ncc2[nH]1)C(F)(F)F)c1cccc(Br)c1` (centres unmarked) [4-(3-Bromophenyl)-1,1,1-trifluoro-4-methyl-2-(5-morpholin-4-yl-1H-pyrrolo[2,3-c]pyridin-2-ylmethyl)pentan-2-ol] were, in that order, “inhibit” and “potent agonists”.
The like results for `Cc1ccc(F)cc1C(C)(C)CC(O)(Cc1cc2cc(-c3ccccc3)ncc2[nH]1)C(F)(F)F` (centres unmarked) [1,1,1-Trifluoro-4-(5-fluoro-2-methylphenyl)-4-methyl-2-(5-phenyl-1H-pyrrolo[2,3-c]pyridin-2-ylmethyl)pentan-2-ol] were, in that order, “inhibit” and “potent agonists”.
For `CC(C)(CC(O)(Cc1cc2cc(O)ncc2[nH]1)C(F)(F)F)c1cc(-c2ccccc2)ccc1O` (centres unmarked) [2-[2-Hydroxy-4-(4-hydroxybiphenyl-3-yl)-4-methyl-2-trifluoromethylpentyl]-1H-pyrrolo[2,3-c]pyridin-5-ol], the “inhibit the vitamin D stimulated production of osteocalcin” value in assay [1] is reported as “inhibit”. For the same compound, the “activity as agonists” value in assay [2] was “potent agonists”.
The like results for `COc1ccc(-c2cccnc2)cc1C(C)(C)CC(O)(Cc1cc2cc(N3CCCCC3)ncc2[nH]1)C(F)(F)F` (centres unmarked) [1,1,1-Trifluoro-4-(2-methoxy-5-pyridin-3-ylphenyl)-4-methyl-2-(5-piperidin-1-yl-1H-pyrrolo[2,3-c]pyridin-2-ylmethyl)pentan-2-ol] were, in that order, “inhibit” and “potent agonists”.
Consider `CCN(C)c1cc2cc(CC(O)(CC(C)(C)c3cc(F)ccc3C)C(F)(F)F)[nH]c2cn1` (centres unmarked) [2-[5-(Ethylmethylamino)-1H-pyrrolo[2,3-c]pyridin-2-ylmethyl]-1,1,1-trifluoro-4-(5-fluoro-2-methylphenyl)-4-methylpentan-2-ol], for which the “inhibit the vitamin D stimulated production of osteocalcin” value in assay [1] was “inhibit”. Besides, the “activity as agonists” value in assay [2] was “potent agonists”.
On to `CC(C)(CC(O)(Cc1cc2cc(C(N)=O)ccc2[nH]1)C(F)(F)F)c1cc(Br)cc2c1OCC2` (centres unmarked) [2-[4-(5-Bromo-2,3-dihydrobenzofuran-7-yl)-2-hydroxy-4-methyl-2-trifluoromethylpentyl]-1H-indole-5-carboxylic acid amide], for which, in assay [1], the “inhibit the vitamin D stimulated production of osteocalcin” value is “inhibit”. In addition, the “activity as agonists” value in assay [2] was “potent agonists”. For the same compound, in assay [3], the “activity in the GR binding assay” value is listed as “potent activity”.
The like results for `COc1ccc(F)cc1C(C)(C)CC(O)(Cc1cc2c(C)nc(C#N)cc2[nH]1)C(F)(F)F` (centres unmarked) [2-[4-(5-Fluoro-2-methoxyphenyl)-2-hydroxy-4-methyl-2-trifluoromethylpentyl]-4-methyl-1H-pyrrolo[3,2-c]pyridine-6-carbonitrile] were, in that order, “inhibit”, “potent agonists” and “potent activity”.
As for `CC(C)(CC(O)(Cc1cc2cc(-c3ccccc3)ncc2[nH]1)C(F)(F)F)c1cc(Cl)cc2c1OCC2` (centres unmarked) [4-(5-Chloro-2,3-dihydrobenzofuran-7-yl)-1,1,1-trifluoro-4-methyl-2-(5-phenyl-1H-pyrrolo[2,3-c]pyridin-2-ylmethyl)pentan-2-ol], the “inhibit the vitamin D stimulated production of osteocalcin” value in assay [1] is “inhibit”. For the same compound, the “activity as agonists” value in assay [2] is recorded as “potent agonists”.
Take `Cc1ccc(F)cc1C(C)(C)CC(O)(Cc1cc2cnncc2[nH]1)C(F)(F)F` (centres unmarked) [1,1,1-Trifluoro-4-(5-fluoro-2-methylphenyl)-4-methyl-2-(1H-pyrrolo[2,3-d]pyridazin-2-ylmethyl)pentan-2-ol]: the “inhibit the vitamin D stimulated production of osteocalcin” value in assay [1] is on record as “inhibit”. The “activity as agonists” value in assay [2] is recorded as “potent agonists”. The “activity in the GR binding assay” value in assay [3] is “potent activity”.
For `CC(C)(CC(O)(Cc1cc2cnccc2[nH]1)C(F)(F)F)c1cccc(Cl)c1` (centres unmarked) [4-(3-Chlorophenyl)-1,1,1-trifluoro-4-methyl-2-(1H-pyrrolo[3,2-c]pyridin-2-ylmethyl)pentan-2-ol], the “inhibit the vitamin D stimulated production of osteocalcin” value in assay [1] is on record as “inhibit”. The “activity as agonists” value in assay [2] is reported as “potent agonists”.
On to `CC(C)(CC(O)(Cc1cc2cc(C(=O)N3CCCC3)ccc2[nH]1)C(F)(F)F)c1cc(Br)cc2c1OCC2` (centres unmarked) [{2-[4-(5-Bromo-2,3-dihydrobenzofuran-7-yl)-2-hydroxy-4-methyl-2-trifluoromethylpentyl]-1H-indol-5-yl}pyrrolidin-1-ylmethanone], for which the “inhibit the vitamin D stimulated production of osteocalcin” value in assay [1] was “inhibit”. Besides, the “activity as agonists” value in assay [2] is listed as “potent agonists”. Further, the “activity in the GR binding assay” value in assay [3] is “potent activity”.
On to `COc1ccc(F)cc1C(C)(C)CC(O)(Cc1cc2cc(-c3ccccc3)ncc2[nH]1)C(F)(F)F` (centres unmarked) [1,1,1-Trifluoro-4-(5-fluoro-2-methoxyphenyl)-4-methyl-2-(5-phenyl-1H-pyrrolo[2,3-c]pyridin-2-ylmethyl)pentan-2-ol], for which the “inhibit the vitamin D stimulated production of osteocalcin” value in assay [1] is “inhibit”. Moreover, the “activity as agonists” value in assay [2] is “potent agonists”.
Regarding `Cc1nccc2[nH]c(CC(O)(CC(C)(C)c3cc(Cl)cc4c3OCC4)C(F)(F)F)cc12` (centres unmarked) [4-(5-Chloro-2,3-dihydrobenzofuran-7-yl)-1,1,1-trifluoro-4-methyl-2-(4-methyl-1H-pyrrolo[3,2-c]pyridin-2-ylmethyl)pentan-2-ol], in assay [1], the “inhibit the vitamin D stimulated production of osteocalcin” value was “inhibit”. Further, the “activity as agonists” value in assay [2] is listed as “potent agonists”.
With `CC(C)(CC(O)(Cc1cc2cc(C(=O)NCC#N)ccc2[nH]1)C(F)(F)F)c1cc(Br)cc2c1OCC2` (centres unmarked) [2-[4-(5-Bromo-2,3-dihydrobenzofuran-7-yl)-2-hydroxy-4-methyl-2-trifluoromethylpentyl]-1H-indole-5-carboxylic acid cyanomethylamide], the “inhibit the vitamin D stimulated production of osteocalcin” value in assay [1] is on record as “inhibit”. Further, in assay [2], the “activity as agonists” value is recorded as “potent agonists”. Also, in assay [3], the “activity in the GR binding assay” value is “potent activity”.
The like results for `COc1cc2cc(CC(O)(CC(C)(C)c3cc(Cl)cc4c3OCC4)C(F)(F)F)[nH]c2cn1` (centres unmarked) [4-(5-Chloro-2,3-dihydrobenzofuran-7-yl)-1,1,1-trifluoro-2-(5-methoxy-1H-pyrrolo[2,3-c]pyridin-2-ylmethyl)-4-methylpentan-2-ol] were, in that order, “inhibit”, “potent agonists” and “potent activity”.
